In test [1] the target is T1, purified class A, C and D enzymes (UniProt Q6XEC0).
T1 construct: rows headed: Ki (OXA-48, NCF); other: purified OXA-48; nitrocefin reporter substrate
The format is biochemical. Particulars: read-out: Ki (OXA-48, NCF); purified OXA-48; nitrocefin reporter substrate.

For test [2], the target named is T2, purified class A, C and D enzymes (UniProt Q9F663).
T2 construct: rows headed: Ki (KPC-2, NCF); other: purified KPC-2; nitrocefin reporter substrate
The format is biochemical. The following applies: read-out: Ki (KPC-2, NCF); purified KPC-2; nitrocefin reporter substrate.

Test [3] deals with purified class A, C and D enzymes (Enterobacter cloacae, UniProt P05364). The format is biochemical. The following applies: purified P99/AmpC of ECL; nitrocefin reporter substrate.
purified class A, C and D enzymes (Enterobacter cloacae, UniProt P05364), sequence (P05364 21-381): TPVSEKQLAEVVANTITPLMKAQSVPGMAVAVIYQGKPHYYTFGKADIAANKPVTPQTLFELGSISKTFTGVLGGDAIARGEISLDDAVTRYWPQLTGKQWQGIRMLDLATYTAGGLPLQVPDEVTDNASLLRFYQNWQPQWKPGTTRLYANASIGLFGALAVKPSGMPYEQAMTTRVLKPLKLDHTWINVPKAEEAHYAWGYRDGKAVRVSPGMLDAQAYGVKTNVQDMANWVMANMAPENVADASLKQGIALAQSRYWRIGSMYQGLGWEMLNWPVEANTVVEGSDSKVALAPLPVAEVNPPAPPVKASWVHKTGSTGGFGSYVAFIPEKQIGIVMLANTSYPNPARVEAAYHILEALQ
Test [4] has as its target T3, purified class A, C and D enzymes (UniProt P0AD64, L31Q/G234S/E235K, species not given).
T3 construct: Ki (SHV-12, NCF); other: purified SHV-12; nitrocefin reporter substrate
T3 sequence (P0AD64 1-286 L31Q/G234S/E235K): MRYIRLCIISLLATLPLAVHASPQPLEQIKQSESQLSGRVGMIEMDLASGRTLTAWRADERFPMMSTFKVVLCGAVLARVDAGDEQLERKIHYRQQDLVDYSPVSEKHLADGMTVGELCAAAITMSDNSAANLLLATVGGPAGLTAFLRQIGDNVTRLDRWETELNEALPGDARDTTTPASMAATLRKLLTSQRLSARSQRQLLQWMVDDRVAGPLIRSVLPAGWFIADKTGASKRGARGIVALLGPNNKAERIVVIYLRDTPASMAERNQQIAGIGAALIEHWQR
The format is biochemical. The following applies: read-out: Ki (SHV-12, NCF); purified SHV-12; nitrocefin reporter substrate.

The target of test [5] is purified class A, C and D enzymes (Escherichia coli, UniProt Q9L5C7). The format is biochemical. The following applies: purified CTX-M-14; nitrocefin reporter substrate.
purified class A, C and D enzymes (Escherichia coli, UniProt Q9L5C7), sequence (Q9L5C7 entry or part of it): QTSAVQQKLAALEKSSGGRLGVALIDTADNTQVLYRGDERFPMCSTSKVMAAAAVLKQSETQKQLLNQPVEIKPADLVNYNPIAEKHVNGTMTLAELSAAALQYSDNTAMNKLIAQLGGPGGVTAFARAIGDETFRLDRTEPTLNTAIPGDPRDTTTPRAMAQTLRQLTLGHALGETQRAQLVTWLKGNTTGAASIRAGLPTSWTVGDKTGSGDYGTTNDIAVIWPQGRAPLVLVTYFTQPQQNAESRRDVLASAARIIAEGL
The target of another test is T4, VIM-1 (Pseudomonas aeruginosa, UniProt A0A0F7KYQ8).
T4 construct: made in house; host or cells: ECM6711 strain carrying pUCP24-VIM-1 plasmid; culture supernatant used unpurified
The experiment in a line: biochemical. The following applies: cleavage of nitrocefin (200 uM) by VIM-1 supernatant.

In test [6] the target is T5, NDM-1 (Klebsiella pneumoniae, UniProt C7C422). Nature of the test: biochemical. Particulars: cleavage of imipenem (100 uM) by NDM-1; read-out: Ki, Imipenem.
T5 sequence (C7C422 29-270, looked up, species assumed): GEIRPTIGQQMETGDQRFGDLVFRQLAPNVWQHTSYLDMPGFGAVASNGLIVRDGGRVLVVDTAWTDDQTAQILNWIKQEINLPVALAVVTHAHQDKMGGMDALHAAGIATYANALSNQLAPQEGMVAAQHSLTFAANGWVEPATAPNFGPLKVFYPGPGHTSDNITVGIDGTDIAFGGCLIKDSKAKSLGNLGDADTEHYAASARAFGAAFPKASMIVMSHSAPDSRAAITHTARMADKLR
Test [7] deals with T5, NDM-1. Nature of the test: Inhibition of purified class B carbapenemase NDM-1 (Ki, imipenem substrate). The format is biochemical. Particulars: NDM-1, substrate imipenem; read-out: Ki NDM-1, Imipenem.

Each structure is given as a SMILES string.

In general, Ki refers to a dissociation constant, usually derived from enzyme kinetics or from competition with a known ligand. Usually IC50 stands for the concentration that inhibits the measured activity by half. As to `O=C(O)c1c(F)ccc2c1OB(O)[C@@H](SC1CNC1)C2` [Compound 46, (R)-3-(azetidin-3-ylthio)-7-fluoro-2-hydroxy-3,4-dihydro-2H-benzo[e][1,2]oxaborinine-8-carboxylic acid], the Ki in test [1] is less than 100 nM; in test [2], 100 to 1000 nM; in test [4] it was less than 100 nM; on NDM-1 [6] it was greater than 100 nM; at NDM-1 [7] it was greater than 100 nM. In test [3], the “Ki (P99/AmpC of ECL, NCF)” value is on record as “Z (Greater than 1 μM)”. In addition, the “Ki (CTX-M-14, NCF)” value in test [5] is listed as “X (Less than 0.1 μM)”. The IC50 on VIM-1 was no less than 1000 nM.

Regarding `COc1ccc2c(c1C(=O)O)OB(O)[C@@H](Sc1nnc[nH]1)C2` [Compound 70, (3R)-2-hydroxy-7-methoxy-3-(4H-1,2,4-triazol-3-ylsulfanyl)-3,4-dihydro-1,2-benzoxaborinine-8-carboxylic acid], the Ki in test [1] is less than 100 nM; in test [2] it was 100 to 1000 nM; in test [4], less than 100 nM; at NDM-1 [6], 10 to 100 nM; at NDM-1 [7], 10 to 100 nM. Further, in test [3], the “Ki (P99/AmpC of ECL, NCF)” value was “Y (0.1 μM to 1 μM)”. For the same compound, in test [5], the “Ki (CTX-M-14, NCF)” value is given as “X (Less than 0.1 μM)”. The compound further returned an IC50 against VIM-1 of less than 1000 nM.

On to `Cn1ncc(C(N)=O)c1S[C@H]1Cc2ccc(F)c(C(=O)O)c2OB1O` [Compound 56, (3R)-3-(4-carbamoyl-2-methyl-pyrazol-3-yl)sulfanyl-7-fluoro-2-hydroxy-3,4-dihydro-1,2-benzoxaborinine-8-carboxylic acid], for which the Ki in test [1] is less than 100 nM; in test [2], 100 to 1000 nM; in test [4] it was 100 to 1000 nM; on NDM-1 [6], greater than 100 nM; on NDM-1 [7], greater than 100 nM. Moreover, the “Ki (P99/AmpC of ECL, NCF)” value in test [3] is reported as “Z (Greater than 1 μM)”. The “Ki (CTX-M-14, NCF)” value in test [5] was “Y (0.1 μM to 1 μM)”. Besides, at VIM-1, the IC50 is no less than 1000 nM.

Consider `O=C(O)c1c(F)ccc2c1OB(O)[C@@H](Sc1nccs1)C2` [Compound 45, (R)-7-fluoro-2-hydroxy-3-(thiazol-2-ylthio)-3,4-dihydro-2H-benzo[e][1,2]oxaborinine-8-carboxylic acid], for which the Ki in test [1] was less than 100 nM; in test [2], 100 to 1000 nM; in test [4], less than 100 nM; at NDM-1 [6], 10 to 100 nM; at NDM-1 [7] it was 10 to 100 nM. Also, the “Ki (P99/AmpC of ECL, NCF)” value in test [3] is on record as “Z (Greater than 1 μM)”. Besides, the “Ki (CTX-M-14, NCF)” value in test [5] was “X (Less than 0.1 μM)”. Also, the 50% inhibitory concentration (IC50) against VIM-1 was no less than 1000 nM.

With `COc1ccc2c(c1C(=O)O)OB(O)[C@@H](Sc1nncn1C)C2` [Compound 28, (R)-2-hydroxy-7-methoxy-3-(4-methyl-4H-1,2,4-triazol-3-ylthio)-3,4-dihydro-2H-benzo[e][1,2]oxaborinine-8-carboxylic acid], the Ki was less than 100 nM in test [1]; 100 to 1000 nM in test [2]; less than 100 nM in test [4]; less than 10 nM at NDM-1 [6]; less than 10 nM on NDM-1 [7]. For the same compound, the “Ki (P99/AmpC of ECL, NCF)” value in test [3] is on record as “Y (0.1 μM to 1 μM)”. The “Ki (CTX-M-14, NCF)” value in test [5] is “X (Less than 0.1 μM)”. This compound also showed an IC50 on VIM-1 of less than 1000 nM.

For the compound `COc1ccc2c(c1C(=O)O)OB(O)[C@@H](Sc1nnc(SC(CN)CN)s1)C2` [Compound 109, (3R)-3-[[5-[2-amino-1-(aminomethyl)ethyl]sulfanyl-1,3,4-thiadiazol-2-yl]sulfanyl]-2-hydroxy-7-methoxy-3,4-dihydro-1,2-benzoxaborinine-8-carboxylic acid], the Ki in test [1] was less than 100 nM; in test [2], 100 to 1000 nM; in test [4], less than 100 nM; on NDM-1 [6] it was less than 10 nM; on NDM-1 [7] it was less than 10 nM. In addition, in test [3], the “Ki (P99/AmpC of ECL, NCF)” value is listed as “Y (0.1 μM to 1 μM)”. Moreover, in test [5], the “Ki (CTX-M-14, NCF)” value is “X (Less than 0.1 μM)”. This compound displayed an IC50 against VIM-1 of less than 1000 nM.

Consider `COc1ccc2c(c1C(=O)O)OB(O)[C@@H](Sc1nc(C(N)=O)cs1)C2` [Compound 61, (3R)-3-(4-carbamoylthiazol-2-yl)sulfanyl-2-hydroxy-7-methoxy-3,4-dihydro-1,2-benzoxaborinine-8-carboxylic acid], for which the Ki is less than 100 nM in test [1]; less than 100 nM in test [2]; less than 100 nM in test [4]; greater than 100 nM at NDM-1 [6]; greater than 100 nM on NDM-1 [7]. Also, in test [3], the “Ki (P99/AmpC of ECL, NCF)” value was “Y (0.1 μM to 1 μM)”. For the same compound, in test [5], the “Ki (CTX-M-14, NCF)” value is reported as “X (Less than 0.1 μM)”. Further, the IC50 against VIM-1 is less than 1000 nM.

For the compound `COc1ccc2c(c1C(=O)O)OB(O)[C@@H](Sc1nnc(SC3CNC3)s1)C2` [Compound 108, (3R)-3-[[5-(azetidin-3-ylsulfanyl)-1,3,4-thiadiazol-2-yl]sulfanyl]-2-hydroxy-7-methoxy-3,4-dihydro-1,2-benzoxaborinine-8-carboxylic acid], the Ki in test [1] is less than 100 nM; in test [2], 100 to 1000 nM; in test [4], less than 100 nM; on NDM-1 [6] it was 10 to 100 nM; at NDM-1 [7], 10 to 100 nM. Also, in test [3], the “Ki (P99/AmpC of ECL, NCF)” value was “Y (0.1 μM to 1 μM)”. The “Ki (CTX-M-14, NCF)” value in test [5] is recorded as “X (Less than 0.1 μM)”. For the same compound, the 50% inhibitory concentration (IC50) against VIM-1 is less than 1000 nM.

For the compound `O=CNc1cnc(S[C@H]2Cc3ccc(F)c(C(=O)O)c3OB2O)s1` [Compound 58, (3R)-7-fluoro-3-(5-formamidothiazol-2-yl)sulfanyl-2-hydroxy-3,4-dihydro-1,2-benzoxaborinine-8-carboxylic acid], the Ki in test [1] is less than 100 nM; in test [2], 100 to 1000 nM; in test [4], less than 100 nM; on NDM-1 [6] it was greater than 100 nM; at NDM-1 [7] it was greater than 100 nM. Further, in test [3], the “Ki (P99/AmpC of ECL, NCF)” value is listed as “Y (0.1 μM to 1 μM)”. Further, the “Ki (CTX-M-14, NCF)” value in test [5] is given as “X (Less than 0.1 μM)”. This compound also had an IC50 against VIM-1 of less than 1000 nM.

For the compound `COc1ccc2c(c1C(=O)O)OB(O)[C@@H](Sc1nnc(NCCNC3CNC3)s1)C2` [Compound 105, (3R)-3-[[5-[2-(azetidin-3-ylamino)ethylamino]-1,3,4-thiadiazol-2-yl]sulfanyl]-2-hydroxy-7-methoxy-3,4-dihydro-1,2-benzoxaborinine-8-carboxylic acid], the Ki in test [1] was less than 100 nM; in test [2], 100 to 1000 nM; in test [4], less than 100 nM; on NDM-1 [6], less than 10 nM; at NDM-1 [7], less than 10 nM. Moreover, in test [3], the “Ki (P99/AmpC of ECL, NCF)” value is recorded as “Y (0.1 μM to 1 μM)”. Also, the “Ki (CTX-M-14, NCF)” value in test [5] is listed as “X (Less than 0.1 μM)”. The IC50 on VIM-1 is less than 1000 nM.

As for `COc1ccc2c(c1C(=O)O)OB(O)[C@@H](Sc1nnc(SC3CCNCC3)s1)C2` [Compound 112, (3R)-2-hydroxy-7-methoxy-3-[[5-(4-piperidylsulfanyl)-1,3,4-thiadiazol-2-yl]sulfanyl]-3,4-dihydro-1,2-benzoxaborinine-8-carboxylic acid], the Ki in test [1] is less than 100 nM; in test [2], less than 100 nM; in test [4] it was less than 100 nM; at NDM-1 [6], 10 to 100 nM; on NDM-1 [7] it was 10 to 100 nM. Moreover, in test [3], the “Ki (P99/AmpC of ECL, NCF)” value is reported as “X (Less than 0.1 μM)”. Besides, the “Ki (CTX-M-14, NCF)” value in test [5] is “X (Less than 0.1 μM)”. Further, the IC50 against VIM-1 is less than 1000 nM.

`NC(=O)CS[C@H]1Cc2ccc(F)c(C(=O)O)c2OB1O` [Compound 49, (3R)-3-(2-amino-2-oxo-ethyl)sulfanyl-7-fluoro-2-hydroxy-3,4-dihydro-1,2-benzoxaborinine-8-carboxylic acid]: the Ki in test [1] was less than 100 nM; in test [2] it was less than 100 nM; in test [4], less than 100 nM; at NDM-1 [6], greater than 100 nM; on NDM-1 [7], greater than 100 nM. The “Ki (P99/AmpC of ECL, NCF)” value in test [3] is “Y (0.1 μM to 1 μM)”. Besides, the “Ki (CTX-M-14, NCF)” value in test [5] was “X (Less than 0.1 μM)”. Besides, the IC50 against VIM-1 was no less than 1000 nM.

For the compound `COc1ccc2c(c1C(=O)O)OB(O)[C@@H](Sc1nnc(NC(C)=O)s1)C2` [Compound 63, (3R)-3-[(5-acetamido-1,3,4-thiadiazol-2-yl)sulfanyl]-2-hydroxy-7-methoxy-3,4-dihydro-1,2-benzoxaborinine-8-carboxylic acid], the Ki is less than 100 nM in test [1]; 100 to 1000 nM in test [2]; less than 100 nM in test [4]; greater than 100 nM on NDM-1 [6]; greater than 100 nM on NDM-1 [7]. Also, the “Ki (P99/AmpC of ECL, NCF)” value in test [3] is reported as “X (Less than 0.1 μM)”. The “Ki (CTX-M-14, NCF)” value in test [5] is reported as “X (Less than 0.1 μM)”. This compound also displayed an IC50 against VIM-1 of less than 1000 nM.

(Values after US10206937B2, “Boronic acid derivatives and therapeutic uses thereof” (Qpex Biopharma, Inc., priority 2014, dated 2019).)
